{"source": "patent US6020316A", "about": "“Glutaraldehyde modified chemotherapeutic agents and methods of use thereof” (priority 1998, dated 2000)", "key": {"[1]": {"tested_on": "MCF-7 (breast adenocarcinoma)", "assay": "Clonogenic survival of human breast adenocarcinoma cells", "format": "cell-based", "settings": "FIG. 3B", "protocol": "(§1) The murine L929 cell line, a human breast adenocarcinoma cell line (MCF-7) and a human bladder transitional cell carcinoma cell line (RT-4) were used to test the compounds of the present invention. All cell lines were obtained from MA Bioproducts (Bethesda, Md.) and were routinely maintained in high-glucose Dulbecco's Modified Eagle's Minimum Essential Medium (DMEM) and 10% newborn calf serum (L929) or 10% fetal calf serum (MCF-7 and RT-4). A DOX-resistant cell line, L929/DOX, was prepared by treating the L929 cell line with gradually increasing concentrations of DOX in vitro until a cell line that grew at a concentration of 50 μg/ml DOX was attained. A resistant subclone was then treated once with 100 μg/ml of DOX. The surviving resistant population was used in subsequent experiments. The L929/DOX cells were maintained in DMEM medium supplemented with 10% fetal calf serum and lacking DOX.\n(§2) Cells from the stock cultures were plated in 35 mm plastic tissue culture dishes at a density of 1×10^5 /cm^2. After 1 to 2 days, when the monolayer had reached a final density of 2-3×10^5 /cm^2, the cultures were washed twice with Dulbecco's phosphate-buffered saline and 2 ml of serum-free DMEM was added. […] Plates were examined after staining with methylene blue, and clones containing more than 10 cells were counted. […]"}, "[2]": {"tested_on": "HTB (bladder transitional cell carcinoma)", "assay": "Clonogenic survival of human bladder transitional cell carcinoma cells", "format": "cell-based", "settings": "FIG. 3A", "protocol": "as §1, §2"}, "HLC (lung carcinoma)": {"tested_on": "HLC (lung carcinoma)", "assay": "Clonogenic survival of human lung carcinoma cells", "format": "cell-based", "settings": "FIG. 3C", "protocol": "(§3) Cells from the stock cultures were plated in 35 mm plastic tissue culture dishes at a density of 1×10^5 /cm^2. After 1 to 2 days, when the monolayer had reached a final density of 2-3×10^5 /cm^2, the cultures were washed twice with Dulbecco's phosphate-buffered saline and 2 ml of serum-free DMEM was added. […] After incubation for 3 hours at 37° C. in 10% CO2, the dishes were rinsed twice with phosphate-buffered saline (pH 7.4) to remove extracellular drugs, trypsinized, and plated for determination of clonogenic survival. Trypsinization involved dispersal of cells with 0.25% trypsin, followed by culture in DMEM plus 10% newborn calf serum for 7 days. Plates were examined after staining with methylene blue, and clones containing more than 10 cells were counted. The surviving fraction was the ratio of the plating efficiency of the cultures exposed to DOX divided by the plating efficiency of control cultures maintained in a medium of the same composition. Plating efficiency is defined as the number of colonies formed divided by the number of cells plated."}, "L929/DOX cells": {"tested_on": "L929/DOX cells", "assay": "Drug efflux from L929/DOX cells versus wild type cells", "format": "cell-based, murine", "source_text": "The surviving resistant population was used in subsequent experiments."}, "L929 cells": {"tested_on": "L929 cells", "assay": "Fluorescence uptake and localization of DOX and GLU-DOX in L929 cells", "format": "cell-based, murine", "protocol": "Cells were grown on 25 mm diameter microscope cover slips (Thomas, Sweedsboro, N.J.) in 35 mm tissue culture dishes. […] The wells were then rinsed two times with phosphate buffered saline and changed to fresh medium. After incubation for 0 h or 2 h, the cover slips were extracted from the plates, rinsed with PBS, mounted in an Attofluor cell chamber (Molecular Probes, Inc. Eugene, Oreg.), and examined by epifluorescence using a Zeiss microscope equipped with a 63× immersion oil objective. The combination of G546 excitation filer, FT580 dichroic mirror, and LP590 emission filter allowed efficient detection of doxorubicin fluorescence at 590 nm. The fluorescence was detected by a CCD72S camera (Dage-MTI, Inc, Michigan City, Ind.) and images were acquired and analyzed using OPTIMAS software (Optimas Corp., Seattle, Wash.). […] Area (A) per fluorescent image, i.e., per cell, and mean gray per image (MI) were measured for at least 20 cells. Mean gray for a background area containing no cell images (MB) was also determined. Fluorescence units (F.U.) per cell were calculated as: [formula]"}, "tumor cell": {"tested_on": "tumor cell", "assay": "Antitumor cell activity of DOX modified with other aldehydes and crosslinking agents", "format": "cell-based", "settings": "substituted for glutaraldehyde in the basic modification protocol", "protocol": "Other aldehydes and crosslinking agents that were substituted for glutaraldehyde in the basic modification protocol included acetaldehyde, butyraldehyde, hexanal, formaldehyde, succinyl chloride, glutaryl dichloride (all from Aldrich Chemical Co., Milwaukee, Wis.), DSG (disuccinimidyl glutarate), DMS (dimethylsuberimidate), and BS^3 (last three compounds from Pierce Chemical Co., Rockford, Ill.).\nas §3"}}, "data": [{"molecule": "COc1cccc2c1C(=O)c1c(O)c3c(c(O)c1C2=O)C[C@@](O)(C(=O)CO)C[C@@H]3O[C@H]1C[C@H](N)[C@H](O)[C@H](C)O1", "note": "[DOX, doxorubicin]", "values": [{"measurement": "sensitivity to DOX", "setting": "[1]", "value": "relatively insensitive"}, {"measurement": "sensitivity to DOX", "setting": "[2]", "value": "relatively insensitive"}, {"measurement": "sensitivity to DOX", "setting": "HLC (lung carcinoma)", "value": "relatively insensitive"}, {"measurement": "drug efflux from L929/DOX relative to wild type cells", "setting": "L929/DOX cells", "value": "pumped out of the L929/DOX cells much faster than out of the wild type cells"}, {"measurement": "Uptake: Mean Fluorescence Units per Cell", "setting": "L929 cells; 5 μg/ml, 3 h at 37° C.", "value": "124 ± 29 Fluorescence Units per Cell"}, {"measurement": "Uptake: Mean Fluorescence Units per Cell", "setting": "L929 cells; 5 μg/ml, 3 h at 37° C. + 2 h chase", "value": "18 ± 6 Fluorescence Units per Cell"}, {"measurement": "fluorescence after chase in drug-free medium", "setting": "L929 cells; 2 hr chase, FIGS. 4B, 4D", "value": "nearly all DOX was lost from the cytoplasmic compartment although some nuclear fluorescence was still detectable"}, {"measurement": "subcellular distribution of fluorescence", "setting": "L929 cells; 3 h exposure, 5 μg/ml, FIGS. 4A, 4C", "value": "in both nucleus and cytoplasm with distinct paranuclear concentration in some cells"}]}, {"molecule": "CCCCCC=O", "note": "[hexanal]", "values": [{"measurement": "antitumor cell activity of the DOX reaction product relative to DOX", "setting": "tumor cell", "value": "None of these compounds, when reacted with DOX, produced a derivative with increased antitumor cell activity relative to DOX"}]}, {"molecule": "COC(=O)c1ccccc1-c1c2ccc(=N)cc-2oc2cc(N)ccc12", "note": "[rhodamine 123]", "values": [{"measurement": "intracellular localization compared with rhodamine 123", "setting": "L929 cells; 2 h exposure, GLU-DOX (100:1) 5 μg/ml, rhodamine 123 10 μg/ml, FIGS. 5A, 5B", "value": "strikingly similar"}]}, {"molecule": "O=C(Cl)CCC(=O)Cl", "note": "[succinyl chloride]", "values": [{"measurement": "antitumor cell activity of the DOX reaction product relative to DOX", "setting": "tumor cell", "value": "None of these compounds, when reacted with DOX, produced a derivative with increased antitumor cell activity relative to DOX"}]}, {"molecule": "acetaldehyde", "values": [{"measurement": "antitumor cell activity of the DOX reaction product relative to DOX", "setting": "tumor cell", "value": "None of these compounds, when reacted with DOX, produced a derivative with increased antitumor cell activity relative to DOX"}]}, {"molecule": "butyraldehyde", "values": [{"measurement": "antitumor cell activity of the DOX reaction product relative to DOX", "setting": "tumor cell", "value": "None of these compounds, when reacted with DOX, produced a derivative with increased antitumor cell activity relative to DOX"}]}, {"molecule": "formaldehyde", "values": [{"measurement": "antitumor cell activity of the DOX reaction product relative to DOX", "setting": "tumor cell", "value": "None of these compounds, when reacted with DOX, produced a derivative with increased antitumor cell activity relative to DOX"}]}, {"molecule": "glutaryl dichloride", "values": [{"measurement": "antitumor cell activity of the DOX reaction product relative to DOX", "setting": "tumor cell", "value": "None of these compounds, when reacted with DOX, produced a derivative with increased antitumor cell activity relative to DOX"}]}]}
